For test [1], the target named is T1, HSF-PLA2 (extracellular PLA2 obtained from human synovial fluid) (Homo sapiens, UniProt P14555).
T1 construct: extracellular enzyme obtained from human synovial fluid; from tissue; host or cells: pooled human synovial fluid (0.1% v/v in the assay)
T1 sequence (P14555 21-144): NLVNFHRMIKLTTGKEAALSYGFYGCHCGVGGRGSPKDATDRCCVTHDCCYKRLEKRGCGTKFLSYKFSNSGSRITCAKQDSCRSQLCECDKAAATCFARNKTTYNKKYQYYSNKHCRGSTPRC
Kind of test: Assay for Inhibition of HSF-PLA2 In Vitro. The conditions noted are these: for inhibition at 10 µM: read-out: % Inhib of HSF-PLA2. It counts as biochemical. The method, then:
The PLA2 used in this test is the extracellular enzyme obtained from human synovial fluid (HSF-PLA2). The assay for HSF-PLA2 activity was a modification of the described method [Franson R., Dobrow R., Weiss, J., Elsbach P., and […]. Lipid Res., 19, 18-23 (1978)] which was conducted using [1-^14 C]-oleate-labelled E. coli substrate in excess at a final concentration of 20,000 dpm/ml. This was equivalent to 18.2 mM of cell membrane phospholipid phosphorus and 2×10^9 autoclaved E. coli/ml. The optimal conditions which were developed for the assay of HSF-PLA2 inhibitors are summarized as follows. […] The reaction was terminated by the addition of 2.5 ml of chloroform-methanol (1 to 1.5, v/v). The extraction of lipids from the stopped reaction mixture was conducted by the further additions of 0.5 ml of chloroform and 1 ml of water with mixing. […] The extracted lipid residue was redissolved in […] of a solution containing carrier oleic acid (0.2 mg/ml) of […]]). […] This TLC system rapidly (6 minutes) resolved the enzymatically released product, ^14 C-oleic acid, from the unreacted ^14 C-phospholipid substrate. The unsaturated lipids were located on the chromatogram by a brief exposure to iodine vapor. The oleic acid zone (Rf value 0.95) and phospholipid zone (origin) were cut out, chopped into small pieces, shaken with 2 ml of ethanol-water (80 to 20, v/v) and 15 ml of Aquasol and counted for radioactivity. A control incubation of substrate in the absence of HSF-PLA2 was performed in each experiment. The PLA2 activity of the human synovial fluid was corrected for this small control value. […] The specific activity of PLA2 in the pooled human synovial fluid under the optimal assay conditions was 49.2 nmoles [1-^14 C]-oleic acid released hour^-1 mg^-1. The IC50 (μM concentration of test compound that produces 50% inhibition of PLA2 activity) was determined for each test compound.

The subject of test [2] is TPA-induced mouse ear edema. In words: TPA Induced Mouse Ear Edema Test (ear punch weight). The class given is in vivo, male CD-1 mice. The settings on record: 30 minutes prior to TPA, ear punch weight at 6 hours; for inhibition in vivo at 1 mg / inhibition in vivo at 0.3 mg: Mus musculus; for inhibition in vivo at 1 mg: 1 mg topical, read-out: % Inhib of TPA Mouse Ear Edema (1 mg); for inhibition in vivo at 0.3 mg: 0.3 mg topical, read-out: % Inhib of TPA Mouse Ear Edema (0.3 mg). The method, then: The TPA-induced mouse ear edema test, a model of irritant-induced contact dermatitis is described in the following reference: J. M. Young, B. M. Wagner and […]. Invest. Dermatology 80, 48-52 (1983). For this test, 10 μl of 12-O-tetradecanoylphorbol-13-acetate (TPA), dissolved in a vehicle of pyridine: water: diethyl ether (20:5:75), was applied to the outside of the right ear of 3-4 week old male CD-1 mice (8 animals per group). The test compounds were dissolved in the same vehicle and 10 μl was applied to the inside of the same ear 30 minutes prior to the application of TPA. Ear punches (6 mm) were removed at 6 hours after TPA application, weighed and assayed for myeloperoxidase (MPO) activity as described in the following reference: P. P. Bradley, […]. Christensen and G. Rothstein, J. Invest. Dermatology 78, 206-209 (1982). The wet weight of the ear biopsy punches is a measure of the ear edema and the level of MPO activity in the ear punches is an indicator of neutrophil infiltration. The data are expressed as percent inhibition of drug-[…] relative to the control group.

SMILES strings stand for the structures. Counter-ions that a name gives are not always drawn.

For the compound `O=C(O)c1cc(OCCCOc2ccc(-c3ccccc3)cc2)cc(OCCCOc2ccc(-c3ccccc3)cc2)c1` [Example 6, 3,5-bis[3-(1,1'-Biphenyl-4-yloxy)propoxy]benzoic acid], the IC50 in test [1] (given as 50 % inhibition at the given concentration, 14C-oleate-labelled E. coli substrate, pH 7.3, 37° C., 30 minutes, read-out: % Inhib of HSF-PLA2: 50 (concentration) = IC50 (μM concentration that produces 50% inhibition of PLA2 activity)) was 3 µM.
Consider `O=C(O)c1cc(OCCOc2cccc3ccccc23)cc(OCCOc2cccc3ccccc23)c1` [Example 8A, 3,5-bis[2-(1-naphthalenyloxy)ethoxy]benzoic acid], for which the inhibition at 10 µM in test [1] came out at 67%.
For `CCCCCCCCCCCCCCCCCCOc1cc(OCCOc2ccc3ccccc3c2)cc(C(=O)O)c1` [Example 15, 3-[2-(2-Naphthalenyloxy)ethoxy]-5-(octadecyloxy) benzoic acid], in test [1], the inhibition at 10 µM was determined as 77%.
On to `CCCCCCCCCCCCCCCCCCOc1cc(OCCCOc2ccc([S+](C)[O-])cc2)cc(C(=O)O)c1` (centres unmarked) [Example 24, 3-[3-[4-(Methylsulfinyl)phenoxy]propoxy]-5-(octadecyloxy)benzoic acid], for which the inhibition at 10 µM in test [1] worked out at 72%. Besides, the inhibition in vivo at 1 mg in test [2] worked out at 43%.
The matching figures for `CCCCCCCCCCCCCCCCCCOc1cc(OCCCOc2ccc(S(C)(=O)=O)cc2)cc(C(=O)O)c1` [Example 26, 3-[3-[4-(Methylsulfonyl)phenoxy]propoxy]-5-(octadecyloxy)benzoic acid]: 86% and 42%.
The corresponding values for `CCCCCCCCCCCCCCCCCCOc1cc(OCCCOc2ccc(O)cc2)cc(C(=O)OC)c1` [Example 34, 3-[3-(4-Hydroxyphenoxy)propoxy]-5-(octadecyloxy) benzoic acid methyl ester] are 2% and 42%.
As for `CCCCCCCCCCCCCCOc1cc(OCCCOc2ccc(OCc3ccccc3)cc2)cc(C(=O)O)c1` [Example 36, 3-[3-[4-(Phenylmethoxy)phenoxy]propoxy]-5-(tetradecyloxy)benzoic acid], in test [1], the inhibition at 10 µM is 87%. Besides, the inhibition in vivo at 1 mg in test [2] is 52%.
The corresponding values for `CCCCCCCCCCCCCCOc1cc(OCCCOc2ccc(O)cc2)cc(C(=O)O)c1` [Example 37, 3-[3-(4-Hydroxyphenoxy)propoxy]-5-(tetradecyloxy) benzoic acid] are 75% and 57%.
Turning to `CCCCCCCCCCOc1cc(OCCCOc2ccc(OCc3ccccc3)cc2)cc(C(=O)O)c1` [Example 39, 3-(Decyloxy)-5-[3-[4-(phenylmethoxy)phenoxy]propoxy]benzoic acid], the inhibition at 10 µM in test [1] was found to be 61%.
`O=C(O)c1cc(OCCCOc2ccc(OCc3ccccc3)cc2)cc(OCCCOc2ccc(OCc3ccccc3)cc2)c1` [Example 41, 3,5-bis[3-[4-(Phenylmethoxy)phenoxy]propoxy]benzoic acid]: the inhibition at 10 µM in test [1] amounted to 54%. For the same compound, in test [2], the inhibition in vivo at 1 mg was 54%.
As to `O=C(O)c1cc(OCCCOc2ccc(O)cc2)cc(OCCCOc2ccc(O)cc2)c1` [Example 42, 3,5-bis[3-(4-Hydroxyphenoxy)propoxy]benzoic acid], the inhibition at 10 µM in test [1] was 5%. In addition, the inhibition in vivo at 1 mg in test [2] was determined as 43%.
The matching figures for `CCCCCCCCCCCCCCCCCCOc1cc(OCCCCCCOc2ccc(O)cc2)cc(C(=O)O)c1` [Example 44]: 94% and 46%.
As for `CCCCCCCCCCCCCCCCCCOc1cc(OCCCOc2ccccc2O)cc(C(=O)O)c1` [Example 46, 3-[3-(2-Hydroxyphenoxy)propoxy]-5-(octadecyloxy) benzoic acid], in test [1], the inhibition at 10 µM stood at 91%. In test [2], the inhibition in vivo at 0.3 mg amounted to 47%.
The matching figures for `CCCCCCCCCCCCCCCCCCOc1ccc(OCCCOc2ccc(OCc3ccccc3)cc2)c(C(=O)O)c1` [Example 49, 5-(Octadecyloxy)-2-[3-[4-(phenylmethoxy)phenoxy]propoxy]benzoic acid]: 79% and 27%.
For `CCCCCCCCCCCCCCCCCCOc1ccc(OCCCOc2ccc(O)cc2)c(C(=O)O)c1` [Example 50, 2-[3-(4-Hydroxyphenoxy)propoxy]-5-(octadecyloxy) benzoic acid], in test [1], the inhibition at 10 µM was found to be 93%. In test [2], the inhibition in vivo at 1 mg is 45%.
The matching figures for `CCCCCCCCCCCCCCCCCCOc1ccc(C(=O)O)c(OCCCOc2ccc(OCc3ccccc3)cc2)c1` [Example 53, 4-(Octadecyloxy)-2-[3-[4-(phenylmethoxy)phenoxy]propoxy]benzoic acid]: 55% and 17%.
The matching figures for `CCCCCCCCCCCCCCCCCCOc1ccc(C(=O)O)c(OCCCOc2ccc(O)cc2)c1` [Example 54, 2-[3-(4-Hydroxyphenoxy)propoxy]-4-(octadecyloxy) benzoic acid]: 79% and 31%.
As to `CCCCCCCCCCCCCCCCCCOc1cccc(C(=O)O)c1OCCCOc1ccc(OCc2ccccc2)cc1` [Example 57, 3-(Octadecyloxy)-2-[3-[4-(phenylmethoxy)phenoxy]propoxy]benzoic acid], in test [1], the inhibition at 10 µM turned out to be 91%. Besides, the inhibition in vivo at 1 mg in test [2] stood at 62%.
For `CCCCCCCCCCCCCCOc1cc(OCCCCCCc2cccc(O)c2O)cc(C(=O)OC)c1` [Example 61, 3-[[6-(2,3-Dihydroxyphenyl)hexyl]oxy]-5-(tetradecyloxy) benzoic acid methyl ester], in test [1], the inhibition at 10 µM was 17%. Also, the inhibition in vivo at 1 mg in test [2] came out at 44%.
For the compound `CCCCCCCCCCOc1cc(OCCCCCCc2cccc(O)c2O)cc(C(=O)OC)c1` [Example 66, 3-(Decyloxy)-5-[[6-(2,3-dihydroxyphenyl)hexyl]oxy]benzoic acid methyl ester], the inhibition at 10 µM in test [1] stood at 22%. In addition, in test [2], the inhibition in vivo at 0.3 mg turned out to be 55%.
Take `CCCCCCCCCCOc1cc(OCCCCCCc2cccc(O)c2O)cc(C(=O)OCCN(CC)CC)c1` [Example 71, 3-(Decyloxy)-5-[[6-(2,3-dihydroxyphenyl)hexyl]oxy]benzoic acid 2-(diethylamino)ethyl ester monohydrochloride salt]: the inhibition in vivo at 1 mg in test [2] came to 57%.
With `CCCCCCCCCCOc1cc(OCCCCCCc2cccc(O)c2O)cc(C(=O)OCOC(C)=O)c1` [Example 72, 3-(Decyloxy)-5-[[6-(2,3-dihydroxyphenyl)hexyl]oxy]benzoic acid (acetyloxy)methyl ester], in test [2] (0.1 mg topical), the “% Inhib of TPA Mouse Ear Edema (0.1 mg)” value is on record as 52%.

Source of the values: patent US5374772A, “Substituted benzoic acids, inhibitors of phospholipases A2” (Hoffmann-LaRoche Inc., priority 1993, dated 1994).
